Source: patent US5571521A (priority 1995, dated 1996)
Read-outs that look alike come from different tables or passages of the source.

Key:
[1] = system: Candida Albicans; assay: Inhibition of microorganism growth in Miller-Hinton broth (Minimal Inhibitory Concentration); assay type: cell-based; settings: Table 1, evaluated at 18 hours
Protocol: (§1) For each of the microorganisms listed below a culture was grown in Miller-Hinton broth (24 hour culture), and then diluted at a 1:100 ratio. This diluted culture was then grown for an additional two hours, after which the silver diphenyl hydantoin was added. […]

[2] = system: Enterococcus (Group D Strep); assay: as above; assay type: cell-based; settings: Table 1; 20 micrograms/ml; evaluated at 18 hours
Protocol: as §1

[3] = system: Klebsiella; assay: as above; assay type: cell-based; settings: Table 1, evaluated at 18 hours
Protocol: as §1

[4] = system: Pseudomonas aeruginosa; assay: as above; assay type: cell-based; settings: Table 1, evaluated at 18 hours
Protocol: as §1

[5] = system: Staphloccoccus aereus; assay: as above; assay type: cell-based; settings: Table 1, evaluated at 18 hours
Protocol: as §1

[6] = system: Seratia; assay: as above; assay type: cell-based, Serratia M.; settings: Table 1, evaluated at 18 hours
Protocol: as §1

[7] = system: Plasmopara viticola; assay: Control of grape downy mildew on plants; assay type: in vivo; settings: for Percent Disease Control, Preventive: inoculated 24 hours after application; for Percent Disease Control, Curative: inoculated 24 hours before application
[8] = system: Phytophthora infestans; assay type: in vivo
[9] = system: Venturia inaequalis; assay: Control of apple scab on plants; assay type: in vivo; settings: inoculated 24 hours after application
[10] = system: Cercospora arachidicola; assay: Control of peanut leafspot on plants; assay type: in vivo; settings: for Percent Disease Control, Preventive: inoculated 24 hours after application; for Percent Disease Control, Curative: inoculated 24 hours before application
[11] = system: pure cultures of organisms; assay: Antibacterial action in pure cultures on blood agar plates; assay type: cell-based
[12] = system: host tissue; assay: Toxicity toward host tissue

For “Silver Ammonium Diphenyl Hydantoin [Silver ammonium phenytoin]”, the “inhibition (Minimal Inhibitory Concentration table)” value (“inhibition” below) ([1]; 20 micrograms/ml) was “+”, the “inhibition” value ([1]; 40 micrograms/ml) was “+” and the “inhibition” value [2] was “+”. For the same substance, the “inhibition” value ([3]; 1 microgram/ml) was “+”, the “inhibition” value ([3]; 10 micrograms/ml) was “+” and the “inhibition” value ([3]; 20 micrograms/ml) was “+”. The “inhibition” value ([4]; 20 micrograms/ml) was “+”, the “inhibition” value ([4]; 40 micrograms/ml) was “+” and the “inhibition” value ([5]; 20 micrograms/ml) was “+”. For the same substance, the “inhibition” value ([5]; 40 micrograms/ml) was “+”, the “inhibition” value ([6]; 10 micrograms/ml) was “+” and the “inhibition” value ([6]; 20 micrograms/ml) was “+”. For the same substance, the “inhibition” value ([6]; 40 micrograms/ml) was “+”, the “Percent Disease Control, Preventive” value ([7]; 5 ppm) was 24% and the “Percent Disease Control, Curative” value ([7]; 5 ppm) was 0%. The “Percent Disease Control, Preventive” value ([7]; 20 ppm) was 49%, the “Percent Disease Control, Curative” value ([7]; 20 ppm) was 0% and the “Percent Disease Control, Preventive” value ([7]; 100 ppm) was 87%. For the same substance, the “Percent Disease Control, Curative” value ([7]; 100 ppm) was 0%, the “Percent Disease Control” value ([8]; 5 ppm) was 17% and the “Percent Disease Control” value ([8]; 20 ppm) was 95%. The “Percent Disease Control” value ([8]; 100 ppm) was 98%, the “Percent Disease Control, Preventive” value ([9]; 5 ppm) was 17% and the “Percent Disease Control, Preventive” value ([9]; 20 ppm) was 95%. The “Percent Disease Control, Preventive” value ([9]; 100 ppm) was 98%, the “Percent Disease Control, Preventive” value ([10]; 5 ppm) was 16% and the “Percent Disease Control, Curative” value ([10]; 5 ppm) was 0%. The “Percent Disease Control, Curative” value ([10]; 20 ppm) was 0%, the “Percent Disease Control, Preventive” value ([10]; 100 ppm) was 78% and the “Percent Disease Control, Curative” value ([10]; 100 ppm) was 60%. The Antibacterial action [11] was “Antibacterial action, was also demonstrated” and the “toxicity toward host tissue” value [12] was “low toxicity toward host tissue”.
